# Experimental data from paper doi:10.1101/2020.01.28.923938v1 (biorxiv, 2020).
# Target: CYP2D6 (Homo sapiens, UniProt P10635)
# Assay: in situ kinetics of dextrorphan formation in HLM, ADE-OPI-MS
# Format: biochemical
# Chain of CYP2D6 (P10635 whole entry): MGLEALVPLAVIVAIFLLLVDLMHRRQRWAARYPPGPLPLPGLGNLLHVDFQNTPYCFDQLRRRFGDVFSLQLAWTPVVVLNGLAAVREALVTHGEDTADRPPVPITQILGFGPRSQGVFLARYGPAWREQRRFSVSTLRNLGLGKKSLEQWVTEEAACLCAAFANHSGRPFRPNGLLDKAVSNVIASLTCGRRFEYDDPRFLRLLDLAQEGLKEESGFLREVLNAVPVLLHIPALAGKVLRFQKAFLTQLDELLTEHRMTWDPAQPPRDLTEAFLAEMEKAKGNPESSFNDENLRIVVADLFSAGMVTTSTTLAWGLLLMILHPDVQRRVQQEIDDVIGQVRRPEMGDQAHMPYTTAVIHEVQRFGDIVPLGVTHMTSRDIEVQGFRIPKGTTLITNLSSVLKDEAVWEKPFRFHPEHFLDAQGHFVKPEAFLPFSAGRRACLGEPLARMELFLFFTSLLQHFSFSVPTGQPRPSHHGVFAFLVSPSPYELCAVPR
smiles,measurement,value
COc1ccc2c(c1)[C@]13CCCC[C@@H]1[C@H](C2)N(C)CC3 [dextromethorphan],Km,3.79 µM
